Test system: blood
Assay: Effect of tranexamic acid on blood coagulation (Example 5)
Format: cell-based
Details: Experimental Condition F: 0.25 mL of 0.02/0.05/0.1 wt % tranexamic acid in distilled water alone; 0.5 mL blood
Procedure: While tranexamic acid, a hemostatic agent with antifibrinolytic activity, was used under the above-described conditions, the time taken to induce blood clots was monitored.
—Experimental Condition A • 1. 0.5 mL of blood was placed on each Petri-dish. • 2. A mixture of 0.25 mL of the solution of Example 1 and 0.25 mL of the 1 wt % calcium chloride solution containing 0.71 wt % of DOPA and 0.02 wt % of tranexamic acid was added to the Petri-dish of 1. • 3. A mixture of 0.25 mL of the solution of Example 1 and 0.25 mL of the 1 wt % calcium chloride solution containing 0.71 wt % of DOPA and 0.05 wt % of tranexamic acid was added to the Petri-dish of 1. • 4. A mixture of 0.25 mL of the solution of Example 1 and 0.25 mL of the 1 wt % calcium chloride solution containing 0.71 wt % of DOPA and 0.1 wt % of tranexamic acid was added to the Petri-dish of 1. • 5. Reactions in the Petri-dishes were observed.
—Experimental Condition B • 1. 0.5 mL of blood was placed on each Petri-dish. • 2. A mixture of 0.25 mL of the solution of Example 1 and 0.25 mL of the 1.5 wt % calcium chloride solution containing 0.67 wt % of DOPA and 0.02 wt % of tranexamic acid was added to the Petri-dish of 1. • 3. A mixture of 0.25 mL of the solution of Example 1 and 0.25 mL of the 1.5 wt % calcium chloride solution containing 0.67 wt % of DOPA and 0.05 wt % of tranexamic acid was added to the Petri-dish of 1. • 4. […]

NC[C@H]1CC[C@H](C(=O)O)CC1 [tranexamic acid]
blood coagulation rate: at lower rates than when in the presence of the esterified atelocollagen
